The values that follow come from patent publication US4614741A, “Depot antiinflammatory agents” (priority 1983, dated 1986).

Series [1] deals with carrageenan-induced oedema of the rat paw. As to the kind of experiment: Inhibition of carrageenan-induced oedema of the rat paw after i.m. depot administration. The class given is in vivo, rat (male, Bor:WISW (SPF-Cpb)). How it is done:
The antioedemic and analgesic effect of the test substances after i.m. administration of an appropriate depot formulation was determined using the carrageenan-induced oedema of the rat paw or using the Randall-Selittotest [Arch. int. Pharmacodyn.
The tests were carried out with male rats [strain: Bor:WISW (SPF-Cpb), weight about 200 g]. The animals receive a single i.m. administration of a depot product, and the antiinflammatory effect was checked on subsequent days by inducing oedema with carrageenan.
The paw volumes were measured by the method of F. Kemper and G. Ameln [Z. ges. exp.
Various doses were administered in a constant volume of 0.03 ml administered per rat (see Table).

For series [2] the following is noted: humans; p.o. versus i.m. in aqueous solution; cited from earlier work.

In the case of `CC(C)Cc1ccc(C(C)C(=O)O)cc1` (centres unmarked) [compound 11, 2-(p-Isobutylphenyl)-propionic acid], in series [1] (13 mg/kg, suspension), the “% inhibition of oedema, 2nd day after inj.” value is 40% and the “% inhibition of oedema, 4th day after inj.” value came to 45%.

Consider `CN1C(C(=O)Nc2ccccn2)=C(O)c2ccccc2S1(=O)=O` [compound 22, 4-Hydroxy-2-methyl-N--2-pyridinyl-2H--1,2-benzothiazine-3-carboxamide 1,1-dioxide], for which, in series [1] (0.6 mg/kg, solution), the “% inhibition of oedema, 2nd day after inj.” value is 33.2% and the “% inhibition of oedema, 4th day after inj.” value worked out at 39.3%. Also, in series [1] (0.6 mg/kg, suspension), the “% inhibition of oedema, 2nd day after inj.” value is 33% and the “% inhibition of oedema, 4th day after inj.” value is recorded as 39%.

For `COc1ccc2c(c1)c(CC(=O)O)c(C)n2C(=O)c1ccc(Cl)cc1` [compound 18, 1-(p-Chlorobenzoyl)-5-methoxy-2-methylindole-3-acetic acid], in series [1] (10.0 mg/kg, solution), the “% inhibition of oedema, 2nd day after inj.” value worked out at 58.2% and the “% inhibition of oedema, 4th day after inj.” value is on record as 29.5%. Further, in series [1] (10.0 mg/kg, suspension), the “% inhibition of oedema, 2nd day after inj.” value was determined as 58.2% and the “% inhibition of oedema, 4th day after inj.” value is recorded as 29.5%.

Consider `COc1ccc2cc([C@H](C)C(=O)O)ccc2c1` [compound 10, D-2-(6-Methoxy-2-naphthyl)propionic acid], for which, in series [1] (2.5 mg/kg, suspension), the “% inhibition of oedema, 2nd day after inj.” value is recorded as 42.8% and the “% inhibition of oedema, 4th day after inj.” value stood at 22.3%.

As for `CC(C(=O)O)c1cccc(C(=O)c2ccccc2)c1` (centres unmarked) [compound 13, 2-(m-Benzoylphenyl)-propionic acid], the “maximum level in the plasma” value in series [2] is “nor do the maximum level in the plasma, or the plasma and renal clearance differ”.

On to `O=C(O)c1cc(-c2ccc(F)cc2F)ccc1O` [compound 3, 2',4'-Difluoro-4-hydroxy-3-biphenyl-carboxylic acid], for which, in series [1] (5 mg/kg, suspension), the “% inhibition of oedema, 2nd day after inj.” value was determined as 26% and the “% inhibition of oedema, 4th day after inj.” value is on record as 13%.

On to `CN1C(C(=O)Nc2nccs2)=C(O)c2ccccc2S1(=O)=O` [compound 21, 4-Hydroxy-2-methyl-N--2-thiazolyl-2H--1,2-benzothiazine-3-carboxamide 1,1-dioxide], for which, in series [1] (15 mg/kg, suspension), the “% inhibition of oedema, 2nd day after inj.” value worked out at 42.9% and the “% inhibition of oedema, 4th day after inj.” value is given as 30.4%.
